The values that follow come from patent US20240382502A1, “COMPOSITIONS AND METHODS FOR DEEP DERMAL DRUG DELIVERY” (ARCUTIS BIOTHERAPEUTICS, INC., priority 2020, published 2024).

Data set [1] can be described thus: Particle size distribution by laser diffraction. It counts as physicochemical. The settings on record: SHR0302 used in Example 1, Malvern Hydro MV, ethyl acetate dispersion. An excerpt: In the pharmaceutical compositions of the present invention, the active ingredient is present as small particles. Particle size of the drug can be assessed using laser diffraction methods. Laser diffraction is recognized by standards and guidance agencies including ISO and ASTM and is widely used to determine particle size distributions. In conducting the assessment, the sample is passed through a laser beam, which results in laser light scattered at a range of angles. Detectors placed at fixed angles measure the intensity of light scattered at that position. A mathematical model is then applied to generate a particle size distribution. The particle size values reported herein are determined by using a liquid or wet dispersion method.
In particle size determinations, the median value is defined as the value where half of the population resides above this point, and half resides below this point. For particle size distributions the median is called the D50. The D50 is the size that splits the distribution with half above and half below this diameter. The distribution width may also be characterized by citing one, two or three values on the x-axis, typically some combination of the D10, D50, and D90. The D50, the median, has been defined above as the diameter where half of the population lies below this value. Similarly, 90 percent of the distribution lies below the D90, and 10 percent of the population lies below the D10.
A pharmaceutical composition comprising 3% SHR0302 suspended in dimethicone was prepared. The primary particle size distribution of the SHR0302 is characterized by a D10 value of less than about 0.25 μm; a D50 value of less than about 0.7 μm; and a D90 value of less than about 5 μm. The pharmaceutical composition was a transparent solution due to the particles being too small to scatter visible light. A Malvern Metasizer Model 3000 using the Hydro MV dispersion unit was used to determine the particle size distribution profile of SHR0302. […]

For a further data set, the target named is JAK1 (Homo sapiens, UniProt P23458). The settings on record: in words; cited from earlier work.
The conditions of data set [2]: orally administered, women; cited from earlier work.

Sequence of JAK1 (P23458 whole entry): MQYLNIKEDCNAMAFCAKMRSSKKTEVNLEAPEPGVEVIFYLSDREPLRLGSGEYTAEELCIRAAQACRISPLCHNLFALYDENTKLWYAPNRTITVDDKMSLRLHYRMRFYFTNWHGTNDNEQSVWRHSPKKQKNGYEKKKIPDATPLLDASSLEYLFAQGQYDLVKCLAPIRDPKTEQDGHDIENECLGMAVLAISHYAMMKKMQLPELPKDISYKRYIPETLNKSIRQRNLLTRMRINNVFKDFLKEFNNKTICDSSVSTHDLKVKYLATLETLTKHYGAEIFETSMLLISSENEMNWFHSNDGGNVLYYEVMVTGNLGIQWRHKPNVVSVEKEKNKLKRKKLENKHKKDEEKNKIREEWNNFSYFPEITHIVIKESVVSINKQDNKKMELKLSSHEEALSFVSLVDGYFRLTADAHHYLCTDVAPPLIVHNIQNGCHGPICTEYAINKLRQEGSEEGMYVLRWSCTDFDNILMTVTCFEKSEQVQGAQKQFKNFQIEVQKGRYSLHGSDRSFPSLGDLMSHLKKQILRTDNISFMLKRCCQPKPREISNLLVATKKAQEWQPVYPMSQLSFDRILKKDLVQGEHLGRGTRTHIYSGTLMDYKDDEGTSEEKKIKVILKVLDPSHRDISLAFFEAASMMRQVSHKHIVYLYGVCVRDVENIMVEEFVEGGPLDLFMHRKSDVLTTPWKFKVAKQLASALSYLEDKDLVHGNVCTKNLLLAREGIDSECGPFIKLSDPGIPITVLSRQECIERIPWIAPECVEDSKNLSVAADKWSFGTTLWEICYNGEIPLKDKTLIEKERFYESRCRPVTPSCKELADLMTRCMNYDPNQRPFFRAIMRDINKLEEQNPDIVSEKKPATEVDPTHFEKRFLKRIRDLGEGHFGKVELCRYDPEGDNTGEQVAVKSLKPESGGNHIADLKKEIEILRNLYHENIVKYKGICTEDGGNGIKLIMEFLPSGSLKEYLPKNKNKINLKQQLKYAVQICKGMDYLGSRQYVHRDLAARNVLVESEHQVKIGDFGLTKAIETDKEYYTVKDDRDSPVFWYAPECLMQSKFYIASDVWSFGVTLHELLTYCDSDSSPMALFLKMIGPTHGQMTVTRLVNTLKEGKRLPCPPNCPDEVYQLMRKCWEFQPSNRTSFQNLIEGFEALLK

For `COc1nsc(NC(=O)N2C[C@H]3C[C@H](N(C)c4ncnc5[nH]ccc45)C[C@H]3C2)n1` [SHR0302, (3aR,5S,6aS)-N-(3-methoxyl-1,2,4-thiadiazol-5-yl)-5-(methyl(7H-pyrrolo[2,3-d]pyrimidin-4-yl)amino)hexahydrocyclopenta[c]pyrrole-2(1H)-carboxamide], in data set [1], the “primary particle size distribution D10” value was “less than 0.25 μm”, the “primary particle size distribution D50” value is recorded as “less than 0.7 μm” and the “primary particle size distribution D90” value is on record as “less than 5 μm”. On JAK1, the “inhibition of JAK1” value is recorded as “potent” and the “selectivity for JAK1 over JAK2” value was “high selectively for JAK1 over JAK2”.
Take `CC(=O)S[C@@H]1CC2=CC(=O)CC[C@]2(C)[C@H]2CC[C@@]3(C)[C@@H](CC[C@@]34CCC(=O)O4)[C@H]12` [spironolactone, 17-hydroxy-7α-mercapto-3-oxo-17α-pregn-4-ene-21-carboxylic acid γ-lactone acetate]: the “efficacy in treatment of acne” value in data set [2] is listed as “efficacious”.
